Experimental findings from US10421765B2, “Tetrahydropyrido[4,3-d]pyrimidine inhibitors of ATR kinase” (Board of Regents, The University of Texas System, priority 2017, dated 2019) are described below.

pIC50: −log10 of the molar value.

Experiment [1] has as its target ATR/ATRIP complex (Homo sapiens (Human), UniProt Q13535). Description: ATR/ATRIP enzymatic assay (Caliper-based). The settings on record: FAM-labeled RAD17 peptide, ATP; for pIC50: read-out: ATR/ATRIP Enzyme IC50. Format: biochemical. An outline of the steps: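 FLAG-TEV-ATR/His6-ATRIP co-expressed in HEK293 and anti-FLAG purified. Compound preincubated 30 min at 28 °C with enzyme (2x solution 4 nM), then FAM-RAD17 peptide (2x solution 10 uM, 2 μM ATP) added for 6 h at 28 °C; HEPES pH 8, 10 mM MnCl2. Caliper conversion read-out, IC50 from four-parameter fit.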

Experiment [2] concerns ATR-driven phosphorylation of Chk1 kinase at Serine 345 in HT-29 colorectal adenocarcinoma cells. The experiment is described as follows: pCHK1 cellular assay (CHK1 p-Ser345 AlphaScreen SureFire). It is filed as cell-based. Particulars: Homo sapiens, HT-29, HT-29 cells, 4-nitroquinoline N-oxide 12 uM; read-out: Cell IC50 (pCHK1 IC50 values). The method in brief: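 HT-29 cells seeded overnight, treated with 1:3 serially diluted compound for 90 minutes at 37° C., then 12 uM (final) 4-nitroquinoline N-oxide for 120 minutes. Lysates read for Chk1 p-Ser345 by AlphaScreen SureFire; IC50 from four-parameter logistic fit, normalized to DMSO (max) and 5 uM ATR inhibitor (min).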

ATR/ATRIP complex, sequence (Q13535 whole entry): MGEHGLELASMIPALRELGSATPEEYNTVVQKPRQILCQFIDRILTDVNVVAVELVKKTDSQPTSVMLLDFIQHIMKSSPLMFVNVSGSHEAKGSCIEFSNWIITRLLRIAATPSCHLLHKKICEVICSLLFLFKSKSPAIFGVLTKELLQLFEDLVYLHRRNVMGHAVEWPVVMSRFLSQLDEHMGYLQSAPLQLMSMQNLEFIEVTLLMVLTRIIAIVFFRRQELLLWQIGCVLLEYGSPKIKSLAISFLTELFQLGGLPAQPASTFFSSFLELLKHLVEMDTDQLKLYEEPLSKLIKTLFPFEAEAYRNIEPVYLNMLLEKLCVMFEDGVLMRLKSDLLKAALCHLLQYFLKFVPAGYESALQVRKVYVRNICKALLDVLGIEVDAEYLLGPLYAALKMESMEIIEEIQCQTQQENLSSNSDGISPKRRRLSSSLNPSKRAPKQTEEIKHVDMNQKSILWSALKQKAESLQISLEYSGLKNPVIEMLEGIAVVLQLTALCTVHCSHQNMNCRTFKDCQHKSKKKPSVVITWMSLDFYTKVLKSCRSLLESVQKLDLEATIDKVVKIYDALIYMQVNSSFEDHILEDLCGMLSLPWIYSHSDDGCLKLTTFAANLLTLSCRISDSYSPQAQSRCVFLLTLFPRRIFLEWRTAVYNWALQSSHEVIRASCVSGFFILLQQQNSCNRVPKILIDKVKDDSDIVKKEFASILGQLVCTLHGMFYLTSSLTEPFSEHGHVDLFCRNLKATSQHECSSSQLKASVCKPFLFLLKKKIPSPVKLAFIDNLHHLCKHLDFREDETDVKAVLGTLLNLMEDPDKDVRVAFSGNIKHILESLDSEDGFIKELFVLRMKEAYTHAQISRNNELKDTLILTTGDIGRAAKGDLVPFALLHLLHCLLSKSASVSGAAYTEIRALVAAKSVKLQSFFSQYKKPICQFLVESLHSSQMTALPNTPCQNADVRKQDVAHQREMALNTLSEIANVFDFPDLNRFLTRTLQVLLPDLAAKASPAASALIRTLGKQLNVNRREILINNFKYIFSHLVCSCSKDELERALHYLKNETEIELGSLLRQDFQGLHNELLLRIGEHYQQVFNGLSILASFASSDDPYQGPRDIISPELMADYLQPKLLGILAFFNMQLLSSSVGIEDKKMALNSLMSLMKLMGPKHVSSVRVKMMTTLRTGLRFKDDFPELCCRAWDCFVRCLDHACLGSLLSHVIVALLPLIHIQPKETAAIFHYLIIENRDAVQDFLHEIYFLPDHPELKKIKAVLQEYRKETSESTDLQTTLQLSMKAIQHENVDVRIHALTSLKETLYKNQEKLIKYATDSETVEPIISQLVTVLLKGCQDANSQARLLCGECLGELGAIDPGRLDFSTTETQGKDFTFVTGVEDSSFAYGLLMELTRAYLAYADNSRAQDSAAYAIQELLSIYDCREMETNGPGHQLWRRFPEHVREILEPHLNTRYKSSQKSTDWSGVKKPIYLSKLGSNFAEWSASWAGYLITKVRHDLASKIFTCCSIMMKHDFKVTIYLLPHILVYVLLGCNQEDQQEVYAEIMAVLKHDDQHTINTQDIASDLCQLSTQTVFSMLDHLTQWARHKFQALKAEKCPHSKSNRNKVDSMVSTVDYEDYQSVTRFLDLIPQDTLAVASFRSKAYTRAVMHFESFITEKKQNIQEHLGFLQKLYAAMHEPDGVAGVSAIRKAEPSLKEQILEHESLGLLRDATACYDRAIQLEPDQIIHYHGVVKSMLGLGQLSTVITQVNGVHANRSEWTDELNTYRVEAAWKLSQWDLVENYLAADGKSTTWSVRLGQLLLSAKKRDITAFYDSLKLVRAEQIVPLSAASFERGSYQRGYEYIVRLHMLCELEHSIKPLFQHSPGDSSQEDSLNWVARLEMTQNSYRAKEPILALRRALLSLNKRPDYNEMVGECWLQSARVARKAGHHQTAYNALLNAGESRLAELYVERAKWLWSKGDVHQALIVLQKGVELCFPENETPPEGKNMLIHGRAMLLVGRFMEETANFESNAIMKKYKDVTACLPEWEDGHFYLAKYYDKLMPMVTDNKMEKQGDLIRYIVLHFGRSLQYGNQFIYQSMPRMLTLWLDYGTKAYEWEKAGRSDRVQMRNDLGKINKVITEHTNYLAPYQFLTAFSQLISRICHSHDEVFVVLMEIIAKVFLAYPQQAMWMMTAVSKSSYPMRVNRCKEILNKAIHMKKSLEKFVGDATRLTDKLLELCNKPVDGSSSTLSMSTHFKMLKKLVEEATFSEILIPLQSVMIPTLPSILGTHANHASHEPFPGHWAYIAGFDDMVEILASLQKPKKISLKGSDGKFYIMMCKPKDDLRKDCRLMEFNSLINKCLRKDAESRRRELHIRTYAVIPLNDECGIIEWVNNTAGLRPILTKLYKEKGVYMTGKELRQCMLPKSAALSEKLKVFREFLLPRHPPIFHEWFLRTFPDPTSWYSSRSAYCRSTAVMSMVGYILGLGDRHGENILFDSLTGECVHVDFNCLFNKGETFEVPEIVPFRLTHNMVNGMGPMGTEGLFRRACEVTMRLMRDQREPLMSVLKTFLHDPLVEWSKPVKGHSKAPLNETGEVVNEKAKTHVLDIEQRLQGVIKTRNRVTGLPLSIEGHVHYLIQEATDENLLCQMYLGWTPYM
ATR/ATRIP complex, sequence (Q8WXE1 whole entry partner): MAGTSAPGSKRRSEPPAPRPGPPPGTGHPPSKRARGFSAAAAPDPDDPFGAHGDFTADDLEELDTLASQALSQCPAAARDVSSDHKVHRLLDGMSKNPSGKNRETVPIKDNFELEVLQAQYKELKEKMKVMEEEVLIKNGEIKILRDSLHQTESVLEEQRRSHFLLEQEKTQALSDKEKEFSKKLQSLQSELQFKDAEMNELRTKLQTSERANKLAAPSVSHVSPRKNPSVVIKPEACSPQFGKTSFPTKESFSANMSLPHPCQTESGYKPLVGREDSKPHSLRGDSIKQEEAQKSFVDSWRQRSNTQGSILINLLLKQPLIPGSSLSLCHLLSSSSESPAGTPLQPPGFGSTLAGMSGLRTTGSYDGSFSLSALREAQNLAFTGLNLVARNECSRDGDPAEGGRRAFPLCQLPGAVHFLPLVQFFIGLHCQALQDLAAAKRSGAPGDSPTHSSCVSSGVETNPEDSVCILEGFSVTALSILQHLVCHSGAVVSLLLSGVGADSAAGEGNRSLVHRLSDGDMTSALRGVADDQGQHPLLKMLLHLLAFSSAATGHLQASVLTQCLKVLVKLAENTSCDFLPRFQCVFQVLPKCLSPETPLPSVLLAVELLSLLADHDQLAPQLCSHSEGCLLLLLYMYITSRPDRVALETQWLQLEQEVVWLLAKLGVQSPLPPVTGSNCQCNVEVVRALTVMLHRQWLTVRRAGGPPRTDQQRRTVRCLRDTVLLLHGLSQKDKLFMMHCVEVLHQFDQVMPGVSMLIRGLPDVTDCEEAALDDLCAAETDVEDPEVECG

For the compound `C[C@@H]1Cc2ncnc(N3CC(C#N)C3)c2CN1c1cc(Cl)nc2[nH]ccc12` [Example 79, (R)-1-(6-(6-chloro-1H-pyrrolo[2,3-b]pyridin-4-yl)-7-methyl-5,6,7,8-tetrahydropyrido[4,3-d]-pyrimidin-4-yl)azetidine-3-carbonitrile], the figures for the pIC50 in experiment [1] and in experiment [2] were 6.99 and 7.85, respectively.

In the case of `CS(=O)(=O)N1CCC(c2ncnc3c2CN(c2ccnc4[nH]ccc24)[C@@H](C(F)F)C3)CC1` [Example 53a, (R)-7-(difluoromethyl)-4-(1-(methylsulfonyl)piperidin-4-yl)-6-(1H-pyrrolo[2,3-b]pyridin-4-yl)-5,6,7,8-tetrahydropyrido[4,3-d]pyrimidine], the “ATR/ATRIP Enzyme IC50” value in experiment [1] is reported as “no fit”. Also, the pIC50 in experiment [2] was 5.00.

`C[C@@H]1Cc2ncnc(N3CC(O)C3)c2CN1c1cc(Cl)nc2[nH]ccc12` [Example 77, (R)-1-(6-(6-chloro-1H-pyrrolo[2,3-b]pyridin-4-yl)-7-methyl-5,6,7,8-tetrahydropyrido[4,3-d]-pyrimidin-4-yl)azetidin-3-ol]: the pIC50 in experiment [1] was 6.49; in experiment [2] it was 7.68.

Consider `Cc1cc2c(N3Cc4c(ncnc4C4CCN(S(C)(=O)=O)CC4)C[C@H]3C)ccnc2[nH]1` [Example 94, (R)-7-methyl-6-(2-methyl-1H-pyrrolo[2,3-b]pyridin-4-yl)-4-(1-(methylsulfonyl)piperidin-4-yl)-5,6,7,8-tetrahydro-pyrido[4,3-d]pyrimidine], for which the pIC50 in experiment [1] was 7.29; in experiment [2], 7.01.

For `C[C@@H]1Cc2ncnc(N3C[C@H]4CC[C@@H](C3)[C@H]4NS(=O)(=O)C3CC3)c2CN1c1cc(Cl)nc2[nH]ccc12` [Example 78, N-((1R,5S,8R)-3-((R)-6-(6-chloro-1H-pyrrolo[2,3-b]pyridin-4-yl)-7-methyl-5,6,7,8-tetrahydropyrido-[4,3-d]pyrimidin-4-yl)-3-azabicyclo[3.2.1]-octan-8-yl)cyclopropane-sulfonamide], the pIC50 in experiment [1] is 6.74; in experiment [2] it was 7.30.
